Data reported in US20250041278A1, “TLR8 AGONIST FOR MODULATING IMMUNE RESPONSE” (The Children's Medical Center Corporation, priority 2021, published 2025).
Read-outs that look alike come from different tables or passages of the source.

Experiments:
[1] = tested on: Balb/c murine model of SARS-CoV-2 immunization; type: in vivo, BALB/c mice; settings: for rSpike immunogenicity: prime Day 0, boost Day 14
[2] = tested on: human adult and elderly PBMCs; experiment: TNF ELISA in human adult or elderly PBMCs, 96-well format; type: cell-based; settings: stimulated for 24 hours
From the text: FIGS. 1A-1D. Discovery of PVP-179 in a human PBMC high-throughput screen. FIG. 1A: A graphical overview depicting screen approach. From a high-throughput screen previously conducted, 310 molecules were identified to be activators of either THP-1 cells (monocyte cell line) or primary human adult peripheral blood mononuclear cells (PBMCs). These 310 molecules were assembled into a stimulation plate and then applied to the PBMCs of 4 elderly donors (cultured with 10% autologous plasma). […] Z scores were averaged across all four elderly donors. The Z score and chemical structure for PVP-179 are indicated. FIG. 1C: Human adult or elderly PBMCs (cultured with 10% autologous plasma) were stimulated with PVP-179 in a two-point concentration titration manner. […] N=4 donors. FIG. 1D: As in FIG. 1C, the supernatants were collected, and 14 cytokines were measured by multiplex assay. […] N=4 donors each.
The activity of PVP-179 was confirmed in a 96-well format in both human adult and elderly PBMCs.

human adult PBMCs = experiment: TNF ELISA in human adult PBMCs after TLR8 inhibitor CUCPT-9a; type: cell-based; settings: CUCPT-9a pre-incubation
Experimental: FIG. 3E: As in FIG. 3D, PBMCs isolated from human adult donors were cultured with 10% autologous plasma and incubated with CUCPT-9a. After inhibition, cells were stimulated with DMSO, TL8-506 (TLR8 specific agonist), LPS (TLR4 agonist; negative control) and different concentrations of PVP-179. Supernatants were harvested after 20-24 hours and analyzed for production of TNF via ELISA. N=6 donors.
Next a TLR8-specific pharmacological inhibitor (CUCPT-9a), which stabilizes the TLR8 dimer in its resting state, was used to inhibit activity downstream of TLR8.

[3] = tested on: human monocytic THP-1 cell line; experiment: High throughput screen in THP-1 cells (NF-kB/IRF-inducing and/or leukocyte adherence-inducing activity); type: cell-based
From the text: FIGS. 1A-1D. Discovery of PVP-179 in a human PBMC high-throughput screen. FIG. 1A: A graphical overview depicting screen approach. From a high-throughput screen previously conducted, 310 molecules were identified to be activators of either THP-1 cells (monocyte cell line) or primary human adult peripheral blood mononuclear cells (PBMCs). These 310 molecules were assembled into a stimulation plate and then applied to the PBMCs of 4 elderly donors (cultured with 10% autologous plasma). […] Z scores were averaged across all four elderly donors. The Z score and chemical structure for PVP-179 are indicated. FIG. 1C: Human adult or elderly PBMCs (cultured with 10% autologous plasma) were stimulated with PVP-179 in a two-point concentration titration manner. After 18 hours of incubation, supernatant was processed for ELISA-based measurement of TNF production. N=4 donors. FIG. 1D: As in FIG. 1C, the supernatants were collected, and 14 cytokines were measured by multiplex assay. […] N=4 donors each.
In a previous high throughput screen (HTS), a number of hit molecules were identified as potentially activating human leukocytes. […] A separate pilot screen of 9,000 of the molecules for TNF-inducing activity in adult human peripheral blood mononuclear cells (PBMCs) subsequently identified 133 molecules. […]

[4] = tested on: human monocyte derived macrophages; experiment: TNF ELISA in human monocyte derived macrophages; type: cell-based; settings: 20-24 hours
Experimental: FIGS. 4A-4D. PVP-179 activates human macrophages and dendritic cells. FIGS. 4A-4B: Murine mononuclear cells were isolated from bone marrow and induced differentiation into dendritic cells (with GM-CSF and IL-4). After 5 days of culturing, these bone-marrow-derived dendritic cells (BMDCs) were stimulated with PVP-179 or MPLA for 18 hours at indicated concentrations. The supernatants were analyzed via ELISA where each dot in the graph represents the mean production of mTNF (FIG. 4A) and mIL-6 (FIG. 4B). N=6 for PVP-179, N=3 for MPLA. Two-way Anova was performed to determine statistical significance. The comparisons shown are compared to control group (0 M PVP-179). FIGS. 4C-4D: PBMCs were isolated from blood of adult human donors. CD14+ monocytes were specifically isolated from the PBMCs and were then cultured in 10% autologous plasma and induced to differentiate into macrophages with M-CSF (FIG. 4C), or dendritic cells with GM-CSF and IL-4 (FIG. 4D). After 5 days, cells were harvested from each differentiated cell type (macrophages: Mφ; dendritic cells: MoDCs) and a 96-well plate was setup with 100,000 cells/well. Cells were then stimulated with indicated concentrations of PVP-179 or R848 (33 μM) or LPS (100 ng/mL). After 20-24 hours of incubation, supernatants were harvested and applied to TNF ELISA. N=2 donors.

CCCCn1c(/N=C/c2nc3ccccc3n2C)nc2ccccc21 [PVP-179]
adjuvant activity ([1]; adult mice): adjuvant activity | rSpike immunogenicity ([1]; adult mice (12 weeks)): enhanced rSpike immunogenicity | antibody subtype enhanced ([1]; aged mice): primarily enhanced the production of anti-rSpike IgG1 subtype antibodies | rSpike immunogenicity ([1]; aged mice (52 weeks/12 months old)): enhanced rSpike immunogenicity | antibody titers compared to rSpike alone ([1]; aged mice, Day 28 serum): 2-5 fold | production of TNF ([2]; adult PBMCs): concentration-dependent production of TNF | production of TNF ([2]; elderly PBMCs): concentration-dependent production of TNF | PVP-179 induced TNF production after CUCPT-9a (human adult PBMCs): completely blocked | hit call in original THP-1 screen [3]: positive hit | TNF-inducing activity [4]: concentration-dependent activity
